Results from publication PMC9046208, “Foldamers reveal and validate therapeutic targets associated with toxic α-synuclein self-assembly” (Nature Communications, 2022).

How the values were obtained:
Type in all cases: biochemical
[1] = biological target: T1, αS1 seed-catalyzed aggregation (Homo sapiens, UniProt P37840, DEL6-12); experiment: Seed-catalyzed ThT aggregation assay (10% WT αS seeds), αS1; settings: αS1, equimolar ratio
T1 construct: made in house; host or cells: Escherichia coli BL21(DE3)
Procedure: Seed-catalyzed αS aggregation assay was performed similarly to a previously described protocol. Briefly, 100 μM monomeric WT αS solution (200 μL, in 1x PBS buffer) was placed into a ThermoMixer (Eppendorf, Hamberg, Germany) and shook for five days at a rate of […] and 37 °C. The solution was sonicated for 10 min and used as αS seeds. The seed-catalyzed aggregation of WT αS/ αS variants was performed by adding αS seeds (10% seeds, αS in monomeric concentration, v/v) into 140 μL of fresh 100 μM WT αS/ αS variants solution and aggregation was started with constant shaking at a rate of […] and 37 °C. The aggregation of proteins was monitored at the indicated times (See the main manuscript) using the above-mentioned method.
The ThT aggregation assay for each protein (WT αS and αS variants) in the presence of SK-129 was carried out the above-mentioned method. SK-129 (from 10 mM stock solution in DMSO) was added at an equimolar ratio (1% DMSO, v/v) to the proteins at the start of the aggregation experiment. The concentration of DMSO was kept constant (1%, v/v) in protein (WT αS and αS variants), control, and protein+molecule solutions. The kinetic profiles of protein aggregation were processed using OriginPro software (Version 9.1). Kinetic curves were fit using a built-in sigmoidal fit in the OriginLab.

Aβ42 aggregation = Aβ42 aggregation (Homo sapiens, UniProt P05067); experiment: ThT aggregation assay, Aβ42; settings: equimolar ratio
Procedure: The aggregation kinetics of αS was monitored using ThT fluorescence assay (λex = 450 nm and λem = 485 nm). To study the aggregation kinetics of αS, the ThT dye at a final concentration of 50 μM was added to 100 μM αS solution in the aggregation buffer (1 x PBS buffer) with and without various concentrations of SK-129 in a Costar black 96–well plate (Corning Inc., Kennebunk, ME). The small molecules were dissolved in dimethyl sulfoxide (DMSO; final DMSO concentration = 0.5%, v/v). The final volume in each well was 140 μL. The plate was incubated at 37 °C with 16 min shaking (434 rpm) and 44 min without shaking in an Infinite M200PRO plate reader (Tecan, Männedorf, Switzerland) and fluorescence was recorded after every hour. We used two methods to quantify the effect of molecules on the aggregation of αS; either we have reported the t50 (time required to reach 50% fluorescence of ThT), which was extracted by fitting the ThT curve as a sigmoidal fit or the absolute ThT fluorescence intensity was reported. […] In the second method, we determined the final ThT fluorescence intensity for the aggregation of αS/Aβ42(with or without ligands) as an average of three separate experiments. […]
The data were expressed as mean and the error bars report the s.e.m. […]

αS aggregation = biological target: T2, αS aggregation (Homo sapiens, UniProt P37840); experiment: SDS-PAGE analysis of soluble and insoluble αS fractions; settings: 100 µM αS, equimolar SK-129, four days
T2 construct: made in house; host or cells: Escherichia coli BL21(DE3), periplasm
Procedure: The solution of αS (100 µM) in the absence and presence of SK-129 were prepared in the aggregation buffer (20 mM NaCl, 20 mM NaPi, pH 6.5) and kept at 37 °C and constant shaking at 1200 rpm until the aggregation of αS plateaued (four days). The solutions were separated into soluble and insoluble fractions of αS by centrifugation at 22,000 × g for 20 min. Afterwards, 2 x Laemmli protein sample loading buffer (Biorad, Hercules, CA) was added to the fractions and boiled at 95 °C for 5 min and ran on a 12% Mini-PROTEAN precast protein gel (Biorad, Hercules, CA). In addition, we also quantified SDS-PAGE gel band intensities using ImageJ software. The gel-based experiments were repeated three times (n = 3) independently to ensure the reproducibility of the data. All the uncropped gels (from Main manuscript and Supplementary Figures) have been included in the Supplementary Data File as Supplementary Fig. 29.

Sequence of Aβ42 aggregation (P05067 672-713 limits assumed): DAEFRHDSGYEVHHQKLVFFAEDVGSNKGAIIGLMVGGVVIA

- effect on seed-catalyzed aggregation [1]: wholly suppressed
- effect on Aβ aggregation (Aβ42 aggregation): did not show any noticeable effect
Structure (SMILES): COC(=O)c1cc(OCC(=O)O)c2cccc(NC(=O)c3cc(OC(C)C)c4cccc(NC(=O)c5cc(OCC(=O)O)c6cccc(NC(=O)c7cc(OC(C)C)c8cccc([N+](=O)[O-])c8n7)c6n5)c4n3)c2n1 [SK-129]
- αS fraction detected by SDS-PAGE (αS aggregation): predominantly detected in the soluble fraction
